Test results taken from US20230406883A1, “COMPOUNDS AND THEIR USE IN TREATMENT OF TACHYKININ RECEPTOR MEDIATED DISORDERS” (Embark Biotech ApS, priority 2020, published 2023).
Numbered stars: 1 amine (or outer) side, 2 acyl side, 3 side chain; on linkers, the order of the positions; unused ones are H or OH. Square brackets hold non-standard residues; d marks the D form. Peptide text beside a SMILES is read from it. * marks the point of attachment. C18 diacid = O=C(O)CCCCCCCCCCCCCCCCC(=O)*; γGlu = O=C(O)[C@H](CCC(=O)[*:2])N[*:1]; Conj‑Neu‑C18DA = not defined here; Cha = N[C@@H](CC1CCCCC1)C(=O)O; NMeL = CN[C@@H](CC(C)C)C(=O)O; hSer = N[C@@H](CCO)C(=O)O; Nle = CCCC[C@H](N)C(=O)O; AEEA = NCCOCCOCC(=O)O

What was measured:
Assay in all cases: IP3 assay (inositol trisphosphate, 3H-myoinositol) in transiently transfected COS-7 cells
Format in all cases: cell-based
hNK3R = biological target: T1, hNK3R (Homo sapiens, UniProt P29371); conditions: for hNK3, IP3 Efficacy / EC50: COS-7 cells; for hNK3, IP3 Efficacy: figure legends: percent of 10^-6 M NKA; for EC50: 0.2% ovalbumin buffer, read-out: hNK3, IP3 EC50
T1 construct: host or cells: COS-7
T1 sequence (P29371 1-465): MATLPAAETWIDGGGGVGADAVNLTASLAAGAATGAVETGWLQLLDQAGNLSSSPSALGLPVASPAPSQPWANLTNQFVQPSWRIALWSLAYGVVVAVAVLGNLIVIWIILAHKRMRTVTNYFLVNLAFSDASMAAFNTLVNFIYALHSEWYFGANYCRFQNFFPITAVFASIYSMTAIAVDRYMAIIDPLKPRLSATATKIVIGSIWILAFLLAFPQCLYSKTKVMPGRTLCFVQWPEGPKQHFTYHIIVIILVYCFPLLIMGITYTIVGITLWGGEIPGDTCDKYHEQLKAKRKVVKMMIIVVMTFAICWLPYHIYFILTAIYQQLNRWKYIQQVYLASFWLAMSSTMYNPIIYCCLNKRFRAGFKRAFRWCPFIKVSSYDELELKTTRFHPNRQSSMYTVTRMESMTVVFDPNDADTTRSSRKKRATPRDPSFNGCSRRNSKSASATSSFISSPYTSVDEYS
Procedure: (§1) Agonist-induced G-protein coupled receptor (GPCR) activation was measured by an Inositol-1,4,5-Trisphosphate [^3H] Radioreceptor Assay (IPs Assay). Assays were carried out using COS-7 cells transiently transfected by calcium phosphate transfection with a vector pcDNA3.1(+) encoding one of the indicated receptors (Genscript). Briefly, DNA mixed with CaCl2 (2 M) and TE-buffer (10 mM Tris-HCl, 1 mM EDTA, pH 7.5) was dropwise added to 2×HBS (50 mM HEPES, 280 mM NaCl, 1.5 mM NaH2PO4, pH 7.2) and incubated for 45 min at room temperature (22±2° C.). The mixture and a final concentration of 100 μM Chloroquine were added to the cells and left to incubate for 5 hours at 37° C. under standard cell culture conditions (10% CO2) before changing medium to fresh medium containing 5 μl/mL Myo-[2-^3H(N)]-inositol (labelling medium).
(§2) The IP3 assay takes advantage of the tachykinin receptors' ability to induce production of the inositol trisphosphate (IP3) second messenger upon agonist (ligand) binding on receptor expressing cells following an initial ^3H-inositol labelling period. In effect this means that production of the second messenger IP3 as a measure of receptor activity can be assessed by counting ^3H-activity.
(§3) Assay solutions used: Wash buffer (HBSS), Assay buffer (HBSS+10 mM LiCl and 0,2% w/v ovalbumin), Lysis buffer (10 mM formic acid), and SPA YSI beads (12.5 mg/ml in H2O). The assay was performed the day after transfection. Briefly, labelling medium was aspirated, and plates were washed ×1 in wash buffer before adding 100 μl assay buffer, pre-incubated for 30 min followed by 120 min incubation with agonist, both at 37° C. After incubation, plates were immediately placed on ice and the incubation medium was aspirated and 40 μl of 10 mM formic acid per well was added. Plates were incubated for at least 30 min on ice. 60 μl (1 mg/well) SPA YSI beads/well was pipetted into a solid white 96 wells plate and 35 μl of the lysis solution was transferred to the plate before covering plates with seal cover and shaking for 10 min. (max speed). Centrifuge plates and leave for 8 hours at room temperature before counting the plates in a MicroBeta plate counter (Perkin Elmer).

hNK1R = biological target: T2, hNK1R (Homo sapiens, UniProt P25103); conditions: for hNK1R, IP3 Efficacy / EC50: COS-7 cells; for hNK1R, IP3 Efficacy: figure legends: percent of 10^-6 M NKA; for EC50: 0.2% ovalbumin buffer
T2 construct: host or cells: COS-7
Procedure: as §1, §2, §3

hNK2R = biological target: T3, hNK2R (Homo sapiens, UniProt P21452); conditions: for EC50 / hNK2R, IP3 Efficacy: COS-7 cells; for EC50: 0.2% ovalbumin buffer; for hNK2R, IP3 Efficacy: figure legends: percent of 10^-6 M NKA
T3 construct: host or cells: COS-7
T3 sequence (P21452 1-398): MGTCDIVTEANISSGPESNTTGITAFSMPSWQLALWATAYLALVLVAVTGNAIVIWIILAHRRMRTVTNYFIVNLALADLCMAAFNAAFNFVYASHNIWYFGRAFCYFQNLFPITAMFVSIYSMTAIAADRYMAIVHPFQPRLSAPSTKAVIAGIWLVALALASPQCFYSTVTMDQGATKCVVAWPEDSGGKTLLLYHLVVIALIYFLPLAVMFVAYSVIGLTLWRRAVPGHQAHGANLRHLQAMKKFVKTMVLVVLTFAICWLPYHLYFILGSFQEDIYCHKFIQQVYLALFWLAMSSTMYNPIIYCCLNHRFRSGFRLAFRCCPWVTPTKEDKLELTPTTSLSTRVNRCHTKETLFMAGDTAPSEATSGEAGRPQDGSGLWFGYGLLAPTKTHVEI
Procedure: as §1, §2, §3

T2 sequence (P25103 whole entry): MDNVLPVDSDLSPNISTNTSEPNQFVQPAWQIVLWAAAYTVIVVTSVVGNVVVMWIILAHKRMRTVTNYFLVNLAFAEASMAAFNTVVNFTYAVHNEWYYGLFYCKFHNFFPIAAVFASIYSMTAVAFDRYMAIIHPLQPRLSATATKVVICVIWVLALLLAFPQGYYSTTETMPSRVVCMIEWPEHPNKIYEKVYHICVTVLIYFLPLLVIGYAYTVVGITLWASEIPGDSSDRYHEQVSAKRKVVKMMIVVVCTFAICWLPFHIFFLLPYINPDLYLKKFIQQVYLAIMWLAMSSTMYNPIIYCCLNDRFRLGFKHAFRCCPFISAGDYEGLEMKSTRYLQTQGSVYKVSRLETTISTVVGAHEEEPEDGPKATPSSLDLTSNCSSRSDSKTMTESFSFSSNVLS

Compound	hNK3, IP3 Efficacy (hNK3R) [%]	hNK1R, IP3 Efficacy (hNK1R) [%]	EC50 (hNK2R) [nM]	hNK2R, IP3 Efficacy (hNK2R) [%]	EC50 (hNK3R) [nM]	EC50 (hNK1R) [nM]	hNK2R receptor activation, in words (hNK2R)	hNK3R receptor activation, in words (hNK3R)	hNK1R receptor activation, in words (hNK1R)
CCCC[C@H](NC(=O)[C@H](CC(C)C)NC(=O)CNC(=O)[C@@H](NC(=O)[C@H](Cc1ccccc1)NC(=O)[C@H](CO)NC(=O)[C@H](CC(=O)O)NC(=O)[C@@H](NC(=O)[C@H](CCCCN)NC(=O)COCCOCCNC(=O)COCCOCCNC(=O)CC[C@H](NC(=O)CCCCCCCCCCCCCCCCC(=O)O)C(=O)O)[C@@H](C)O)C(C)C)C(N)=O [compound 308, *Lys;Thr;Asp;Ser;Phe;Val;Gly;Leu;Nle;NH2]	93	60	96	65	1000	~164	–	–	–
*Asp;Lys;Val;Tyr;Gly;NmLeu;Nle;NH2 ({Conj‑Neu‑C18DA}-DKVYG[NMeL][Nle]-NH2; reading uncertain; also: printed as *Asp;Lys;Val;Tyr;Gly;NmLeu;Nle;NH2) [compound 363, * is Conj-Neu-C18DA protractor on N-terminal α-amino group]	0	0	–	0	–	–	complete loss of receptor activation on NK1-3Rs	complete loss of receptor activation on NK1-3Rs	complete loss of receptor activation on NK1-3Rs
CCCC[C@H](NC(=O)[C@H](CC(C)C)N(C)C(=O)CNC(=O)[C@@H](NC(=O)[C@H](Cc1ccccc1)NC(=O)[C@H](CO)NC(=O)[C@H](CC(=O)O)NC(=O)[C@@H](NC(=O)[C@H](CCCCN)NC(=O)COCCOCCNC(=O)COCCOCCNC(=O)CC[C@H](NC(=O)CCCCCCCCCCCCCCCCC(=O)O)C(=O)O)[C@@H](C)O)C(C)C)C(N)=O [compound 312, *Lys;Thr;Asp;Ser;Phe;Val;Gly;NmLeu;Nle;NH2]	80	44	25	65	513	~178	–	–	–
COCC[C@H](NC(=O)[C@H](CC(C)C)N(C)C(=O)CNC(=O)[C@@H](NC(=O)[C@H](Cc1ccccc1)NC(=O)[C@H](CCCCN)NC(=O)[C@H](CC(=O)O)NC(=O)COCCOCCNC(=O)COCCOCCNC(=O)CC[C@H](NC(=O)CCCCCCCCCCCCCCCCC(=O)O)C(=O)O)C(C)C)C(N)=O [compound 384, *Asp;Lys;Phe;Val;Gly;NmLeu;Metox;NH2] ({C18 diacid-γGlu-AEEA-AEEA}-DKFVG[NMeL][hSer](Me)-NH2)	85	80	0.9	95	10	16	–	–	–
CSCC[C@H](NC(=O)[C@H](CC(C)C)N(C)C(=O)CNC(=O)[C@@H](NC(=O)[C@H](Cc1ccccc1)NC(=O)[C@H](CCCCNC(=O)COCCOCCNC(=O)COCCOCCNC(=O)CC[C@H](NC(=O)CCCCCCCCCCCCCCCCC(=O)O)C(=O)O)NC(=O)[C@H](CC(=O)O)NC(=O)COCCOCCNC(=O)COCCOCCNC(=O)CC[C@H](NC(=O)CCCCCCCCCCCCCCCCC(=O)O)C(=O)O)C(C)C)C(N)=O [compound 302, *Asp;Lys*;Phe;Val;Gly;NmLeu;Met;NH2]	–	–	–	–	–	–	inactivates the NKA(4-10) analogue	–	–

Further lines, with some results ahead:

hNK3, IP3 Efficacy (hNK3R) [%]	hNK1R, IP3 Efficacy (hNK1R) [%]	EC50 (hNK2R) [nM]	hNK2R, IP3 Efficacy (hNK2R) [%]	EC50 (hNK3R) [nM]	EC50 (hNK1R) [nM]	hNK2R receptor activation, in words (hNK2R)	Compound	hNK3R receptor activation, in words (hNK3R)	hNK1R receptor activation, in words (hNK1R)
0	20	23	70	–	–	–	CC(C)C[C@@H](C(=O)N[C@@H](CC1CCCCC1)C(N)=O)N(C)C(=O)CNC(=O)[C@@H](NC(=O)[C@H](Cc1ccc(O)cc1)NC(=O)[C@H](CCCCN)NC(=O)[C@H](CC(=O)O)NC(=O)COCCOCCNC(=O)COCCOCCNC(=O)CC[C@H](NC(=O)CCCCCCCCCCCCCCCCC(=O)O)C(=O)O)C(C)C [compound 313, *Asp;Lys;Tyr;Val;Gly;NmLeu;cHexAla;NH2] ({C18 diacid-γGlu-AEEA-AEEA}-DKYVG[NMeL][Cha]-NH2)	–	–
10	50	6.5	90	–	–	–	CCCC[C@H](NC(=O)[C@H](CC(C)C)N(C)C(=O)CNC(=O)[C@@H](NC(=O)[C@H](Cc1ccc(O)cc1)NC(=O)[C@H](CCCNC(=N)N)NC(=O)[C@H](CCC(=O)O)NC(=O)COCCOCCNC(=O)COCCOCCNC(=O)CC[C@H](NC(=O)CCCCCCCCCCCCCCCCC(=O)O)C(=O)O)C(C)C)C(N)=O [compound 357, *Glu;Arg;Tyr;Val;Gly;NmLeu;Nle;NH2] ({C18 diacid-γGlu-AEEA-AEEA}-ERYVG[NMeL][Nle]-NH2)	–	–
0	0	–	0	–	–	completely destroys NK2R activation	*Asp;Lys;dPhe;Val;Gly;NmLeu;Nle;NH2 (DKFVGLL; N-terminal Conj-Neu-C18DA protractor; C-terminal amide; (1)..(1) Conj-Neu-C18; MOD_RES (3)..(3) D-Phe; MOD_RES (6)..(6) N-methyl-Leucine; MOD_RES (7)..(7) AMIDATION; MOD_RES (7)..(7) Nle) [compound 356, * is Conj-Neu-C18DA protractor on N-terminal α-amino group]	–	–
0	0	4.5	46	–	–	–	CCCC[C@H](NC(=O)[C@H](CC(C)C)NC(=O)[C@@H](CO)NC(=O)[C@@H](NC(=O)[C@H](Cc1ccccc1)NC(=O)[C@H](CCCCN)NC(=O)[C@H](CC(=O)O)NC(=O)COCCOCCNC(=O)COCCOCCNC(=O)CC[C@H](NC(=O)CCCCCCCCCCCCCCCCC(=O)O)C(=O)O)C(C)C)C(N)=O [compound 385, *Asp;Lys;Phe;Val;dSer;Leu;Nle;NH2] ({C18 diacid-γGlu-AEEA-AEEA}-DKFV[dS]L[Nle]-NH2)	–	–
0	0	47	60	–	–	–	CCCC[C@H](NC(=O)[C@H](CC(C)C)N(C)C(=O)CNC(=O)[C@H](CCCNC(=N)N)NC(=O)[C@H](Cc1ccccc1)NC(=O)[C@H](CCCCN)NC(=O)[C@H](CCC(=O)O)NC(=O)COCCOCCNC(=O)COCCOCCNC(=O)CC[C@H](NC(=O)CCCCCCCCCCCCCCCCC(=O)O)C(=O)O)C(N)=O [compound 315, *Glu;Lys;Phe;Arg;Gly;NmLeu;Nle;NH2] ({C18 diacid-γGlu-AEEA-AEEA}-EKFRG[NMeL][Nle]-NH2)	–	–
0	0	~3100	45	–	–	–	CCCC[C@H](NC(=O)[C@H](CC(C)C)N(C)C(=O)CNC(=O)[C@H](CCCNC(=N)N)NC(=O)[C@H](Cc1ccc(O)cc1)NC(=O)[C@H](CCCCN)NC(=O)[C@H](CCC(=O)O)NC(=O)COCCOCCNC(=O)COCCOCCNC(=O)CC[C@H](NC(=O)CCCCCCCCCCCCCCCCC(=O)O)C(=O)O)C(N)=O [compound 314, *Glu;Lys;Tyr;Arg;Gly;NmLeu;Nle;NH2] ({C18 diacid-γGlu-AEEA-AEEA}-EKYRG[NMeL][Nle]-NH2)	–	–
